“Also recorded” adds a separate entry of the source.
How the values were obtained:
oxytocin receptor (OXTR) = assay: OXTR expression in skeletal muscle by real-time qRT PCR; type: in vivo, C57.B6 mice; details: old mice, s.c. daily 7 days, compared to control HBSS
Procedure: Old C57.B6 male mice (23-24 mo) per were administered by subcutaneous injections with oxytocin (OXT), Alk5i, a mixture of OXT and Alk5i (OXT+Alk5i) or control in vivo for 7 days, daily. The expression levels of oxytocin receptor (OXTR) were assayed by real-time qRT PCR in skeletal muscle of these mice.
OT and/or A5i or control vehicle (HBSS) was injected subcutaneously to old male C57.B6 mice (23-24 month), daily for 7 days before sacrifice. 3 month C57.B6 male mice identically injected with HBSS were used as young controls
qPCR analysis: Tissue lysates from frozen muscle, liver, and brain embedded in OCT were prepared. 40 slices of 10 μm thick slices were collected and homogenized using QIAShredder (from QIAGEN). Total RNA was extracted with RNeasy Mini Kit (from QIAGEN) according to manufacturer's instructions. Reverse transcription was performed with Superscript III First-Stand Synthesis System (from Invitrogen) according to manufacturer's instructions. For real-time PCR amplification and quantification of gene of interest, 1 ug of total cDNA was used for the initial amplification using specific primers to each gene of interest; amplification was performed with a denaturation step at 95 C for 10 minutes, followed by 40 cycles of denaturation at 95 C for 15 seconds and primer extension at 60 C for 30 s. Real-time PCR was performed using iQ™ SYBR Green Supermix (from Bio-Rad) under CFX Connect Real-Time System (Bio-Rad). Reactions were run in triplicates. Housekeeping gene actin was used as an internal control to normalize the variability in expression levels, and results were analyzed using the 2-ΔΔCT method described (50).

[1] = tested on: neural stem cells (Sox-2+) in the subgranular zone of the Dentate Gyrus; assay: Hippocampal neurogenesis in old mice (proliferating Sox-2+ neural stem cells in SGZ); type: in vivo; details: old mice with CTX muscle injury, 7 days treatment, vs HBSS control
Procedure: In addition to the cohort that underwent muscle injury, we also performed a study with old mice that were not injured. Young mice administered with control HBSS served as control. […] Hippocampal neurogenesis was assayed in the same mice that were studied for muscle repair above and additionally for mice that were not injured by cardiotoxin. The numbers of proliferating neural stem cells (Sox2+Ki67+) cells per DG of SGZ of hippocampus were quantified in serial brain cryosections. […] NS=non-statistically significant. […] Scale bar=100 microns. […] Data quantification: Muscle regeneration indices were calculated by counting percent de-novo myofibers with central nuclei to total nuclei in multiple images of 10-micron muscle sections for independently treated animals. Muscle fibrosis was quantified by measuring fibrotic areas on Image J. These fibrotic areas were normalized to the area of the image taken at 20× (˜14000 micron^2). Hippocampal neurogenesis (Sox2+/Ki67+, Sox2/BrdU+), p16+SGZ cell numbers and CD45+ cell numbers were quantified by counting the number of respective cells (from multiple 25-35-micron IF brain sections) and for neurogenesis and p16+ cells, extrapolating these numbers to the total thickness of the dentate gyrus. […]

old mice = assay: Four-limb hanging test; type: in vivo; details: old mice without muscle injury; for strength (average hang time): 7-day treatment; for learning: percent improvement from first to second hang time: before and after 7-day treatment
Procedure: To assay functional performance, Alk5i alone (low dose), OT alone, Alk5i+OT and control HBSS were dosed to old mice without muscle injury, using young mice injected with HBSS as an additional control. The four-limb hanging test was given to all mice before and after the 7-day treatment. In order to better focus the test on the learning and memory aspects (rather than strength) we examined the percent improvement of each individual animal from the first to the second test session among all studied cohorts.
A four-limb hanging test was conducted with mice before and after treatment by injection of oxytocin (OT), Alk5 inhibitor (A5i) or both, or control HBSS (young and old). The maximal hang time from two trials was considered and the percent change for each animal before and after treatment is shown. A difference is observed between young and all old cohorts (p<0.04) except for the old+Alk5i+OT where there is no statistically significant difference with the young (p=0.5) (test, 1 tail, heteroscedastic).
Four limb hanging test: Muscle strength and endurance were determined by timing how long mice can hang upside down from a wire screen, as published (27). Briefly, each mouse was placed on a 1 cm. mesh, 1 mm wire screen, 30 cm over soft bedding, inverted and timed until the mouse fell. Each animal was given two to three trials with at least a 5-minute rest between trials. Hanging index is expressed as the maximum hang time times the weight of the mouse, with longer times or greater weight for a given time considered better performance.

p16 = p16 protein in primary myotubes (Western Blotting); type: cell-based; details: 24 hours treatment
p21 [2] = details: high dose, old mice; cited from earlier work
muscle regeneration = details: short term subcutaneous injection; cited from earlier work
p21 [3] = details: pERK-dependent manner; cited from earlier work

Compound | OXTR expression levels in skeletal muscle (oxytocin receptor (OXTR)) | OXTR levels diminished by (oxytocin receptor (OXTR)) [fold] | hippocampal neurogenesis (Sox2+Ki67+ cells) [1] | strength (average hang time) (old mice) | learning: percent improvement from first to second hang time (old mice) | p16 protein levels in primary myotubes (p16) | p21 levels in brain (p21 [2]) | OXTR expression levels in skeletal muscle (oxytocin receptor (OXTR); listed as OXT) | muscle regeneration in old mice (muscle regeneration) | CDKI p21 (p21 [3])
2-(3-(6-Methylpyridin-2-yl)-1H-pyrazol-4-yl)-1,5-naphthyridine [Alk5i] | reduced the levels of the oxytocin receptor (OTR) | 2 | failed to enhance the neurogenesis of the old animals | young animals outperformed all old cohorts | did not show improvement | not either molecule alone | attenuates p21 levels in brain of old mice |  |  | 
CC[C@H](C)[C@@H]1NC(=O)[C@H](Cc2ccc(O)cc2)NC(=O)[C@@H](N)CSSC[C@@H](C(=O)N2CCC[C@H]2C(=O)N[C@@H](CC(C)C)C(=O)NCC(N)=O)NC(=O)[C@H](CC(N)=O)NC(=O)[C@H](CCC(N)=O)NC1=O [OT, Oxytocin] |  |  | failed to enhance the neurogenesis of the old animals | young animals outperformed all old cohorts | did not show improvement | not either molecule alone |  | had no effect; also recorded: did not have an effect on OXTR | able to restore muscle regeneration in old mice | down-modulate CDKI p21

Source: US20200155638A1, “Enhancing Oxytocin Receptor Expression Using an Oxytocin Receptor Agonist and an Alk5 Antagonist” (The Regents of the University of California, priority 2017, published 2020)
